Source: patent US12433876B2, “Septin inhibitors for treatment of cancers” (UNIVERSITY OF ROCHESTER, priority 2019, dated 2025)

Tests used:
septin-9 = assay: Immunoblot of septin-9 expression; assay type: cell-based; conditions: 48 hours
Cullin-3 = assay: Cell Cycle Antibody Array, PANC-1 cells; assay type: cell-based; conditions: normalized to GAPDH
Description: Cell Cycle Protein Expression. Cell Cycle Antibody Array (FullMoon BioSystems Inc, catalogue number: ACC:058), a high throughput ELISA based antibody array, designed for qualitative/semi-quantitative protein expression profiling was employed to investigate the protein changes after drug treatment. PANC-1 cells were lysed in buffer containing protease and phosphatase inhibitors (Cell Signaling, catalog number: 9803S). Total protein content was quantified by Bradford assay and equal amounts of proteins were analyzed in duplicate with arrays containing 4 to 6 spots for each of 60 probes (ACC058, Cell Cycle Antibody Array; Full Moon Biosystems, Sunnyvale, Calif.), according to manufacturer's instructions. After background correction, mean signal intensities were measured using FullMoon Inc's imaging services. Protein expressions in both the naïve and 328 treatment group was normalized to GAPDH signals. Confocal Analysis of Septin Disarrangement. To determine the impact of UR214-9 treatment on Septin-2 structure in cells, PANC-1 or JIMT-1 cells were seeded on glass slides and allowed to adhere overnight. The media was replaced with complete DMEM media supplemented with DMSO or UR214-9 (1 μM and 70 nM) and cells were incubated for 48 hours. […] The cells were stained with fluorescence linked secondary antibody for 1 hr under dark. […] Five cells were outlined and analyzed per field. […]

[1] = system: JIMT-1 breast cancer cells; assay: RNA-Seq whole transcriptome analysis, JIMT-1; assay type: cell-based, human; conditions: 10 nM Afatinib, 1 μM UR214-9
JIMT1 xenograft tumors = assay: JIMT1 xenograft tumor growth; assay type: in vivo, NSG mice; conditions: 25 mg/kg IP, 28 days
septin-6 = assay: Immunoblot of septin-6 expression; assay type: cell-based; conditions: 48 hours
HER2 = assay: Immunoblot of HER2 expression, pancreatic and breast cancer cells; assay type: cell-based
[2] = MDA-MB-231, JIMT-1 and MCF-7 cells, 10 and 30 μM

O=C(Nc1cc(Cl)nc(Cl)c1)Nc1cccc(SC(F)(F)F)c1F [UR214-9]
septin-9 protein expression levels (western blot) (septin-9; [2]): does not alter the protein expression levels | septin-9 expression (immunoblot) (septin-9; PANC-1, 1.0 and 10.0 μM): completely inhibited | Cullin-3 expression, treated versus naïve (Cullin-3): most pronounced upregulation | dysregulated genes, down [1]: 4 | dysregulated genes, up [1]: 7 | xenograft tumor growth (tumor volume and weight) (JIMT1 xenograft tumors): significant growth control | septin-6 protein expression levels (western blot) (septin-6; [2]): does not alter the protein expression levels | septin-6 expression (immunoblot) (septin-6; PANC-1, 1.0 and 10.0 μM): unaffected | HER2 expression (HER2; MDA-MB-231, JIMT-1 and MCF-7 cells, 10 and 30 μM, 24 hours): reduced HER2 expression | HER2 expression (HER2; PANC-1 (HER2+), 0.1, 1.0 and 10 μM, 72 hours): dose-dependent decrease in HER2 expression
